Measured values taken from article PMC10819570, “Design, Synthesis, and Biological Evaluation of 2-Substituted Aniline Pyrimidine Derivatives as Potent Dual Mer/c-Met Inhibitors” (Molecules, 2024).
Entries after “also recorded” stand apart in the source; their conditions may differ.

Columns and labels:
[1] = tested on: HCT116 cells; test: Transwell migration assay; type: cell-based; details: 24 h
Procedure: Transwell migration assays were performed using Transwell® chamber inserts (Costar, Cambridge, MA, USA) with a porous polycarbonate membrane (8 μM pore size).
Transwell migration assays were performed using Transwell® chamber inserts (Costar, Cambridge, MA, USA) with a porous polycarbonate membrane ([…]). Briefly, 1.5 × 10^5 HCT116 cells were added in the top chamber with FBS-free culture media containing 0.2% BSA. A culture medium containing 15% FBS was added to the bottom chamber. […] After incubation for 24 h at 37 °C, the cells were fixed in methanol and stained with 0.1% crystal violet. The cells that had not migrated from the top surface of the filters were removed with cotton. Five randomly selected fields were captured by brightfield microscopy for each well. Migrated cells were quantitated by ImageJ (1.53c). Experiments were repeated at least three times in replicates.

[2] = Liver microsome stability assay; type: in vitro ADME; details: pH 7.4, human liver microsomes 0.2 mg/mL, test compound 1 μM, NADPH
Procedure: Stock solution (10 mM) of each of test compound was prepared in DMSO. The stock solution for each compound was then diluted into 200 μM with acetonitrile. Incubation mixtures were prepared in a total volume of 200 μL with final component concentrations as follows: 0.1 M PBS (pH 7.4), NADPH (2 mM), liver microsomes (0.2 mg/mL), and test compound (1 μM) or positive control. NAPDH was added after a 5 min preincubation of all other components at 37 °C, then pipette-mixed to achieve a homogenous suspension and immediately transferred 20 μL of the incubate as a 0 min sample to wells in a “Quenching” plate, followed by pipette-mixing. At 5, 15, 30, and 60 min, we pipette-mixed the incubate and serially transferred samples of 20 μL of the incubate per time point to wells in a separate “Quenching” plate, followed by pipette-mixing. In “Quenching” plates, 200 μL of acetonitrile was added with IS. The 96 wells were centrifuged at 4000 rpm for 10 min. Then 50 μL of supernatant was mixed with 50 μL of ddH2O and injected into the LC-MS/MS system for analysis.

[3] = tested on: HCT116 cells; test: Antiproliferation assay (CCK-8), HCT116; type: cell-based
Procedure: (§1) Cell viability was measured by Cell Counting Kit-8 (Meilunbio, Dalian, China) according to the manufacturer’s instructions. Briefly, cancer cells were seeded into 96-well plates at a density of 2.5 × 10^3 cells per well. […] Subsequently, CCK-8 solution was added into each well and incubated for an additional 2 h. The absorbance at 450 nm was determined in each well using the BioTek Synergy HTX microplate reader. The assay was performed in triplicate, and each experiment was repeated three times.

[4] = target: T1, hERG potassium currents (Homo sapiens, UniProt Q12809); test: hERG potassium currents assay (automated whole-cell patch clamp, CHO cells); type: cell-based; details: CHO cells stably expressing hERG, QPatch
T1 construct: expressed in transfected cells
Procedure: CHO cells stably expressing the transcript of hERG were investigated by the automated whole-cell patch clamp technique, using the QPatch system (Sophion, Ballerup, Denmark). The detailed procedures of the hERG potassium currents assay were described in our previous work. Each cell was received from six escalating concentrations. Each concentration was tested on at least three cells. The reference compound cisapride was applied at the end of the test compound addition.

[5] = tested on: HepG2 cells; test: Antiproliferation assay (CCK-8), HepG2; type: cell-based
Procedure: as §1, with “The antiproliferative activities of the compounds against HepG2, MDA-MB-231, and HCT116 cell lines were tested by the standard CCK-8 method. Cell viability” for “Cell viability”

[6] = tested on: HCT116 cells; test: TUNEL apoptosis assay; type: cell-based; details: HCT116, 48 h treatment
Procedure: The number of TUNEL-positive cells was counted from 5 non-overlap random fields per group; DAPI (blue). Data are representative of three independent experiments.
The One Step TUNEL Apoptosis Assay Kit (Meilunbio, Dalian, China) was used for studying apoptosis in a dose-dependent manner. HCT116 cells (1.5 × 10^4 cells/well) were cultured in TC-treated glass coverslip-containing plates. […] Next, adhered cells were fixed with 4% paraformaldehyde and permeabilized with 0.3% Triton-X-100. TUNEL staining was performed according to the manufacturer’s instructions. The nuclei of cells were counterstained with the DAPI reagent. Images were taken using an Olympus fluorescence microscope. The ED50 for 18c was calculated with the program GraphPad PRISM 9.5. The assay was performed in triplicate, and each experiment was repeated three times.

[7] = tested on: MDA-MB-231 cells; test: Antiproliferation assay (CCK-8), MDA-MB-231; type: cell-based
Procedure: as §1, with “The antiproliferative activities of the compounds against HepG2, MDA-MB-231, and HCT116 cell lines were tested by the standard CCK-8 method. Cell viability” for “Cell viability”

[8] = target: T2, Mer kinase (Homo sapiens, UniProt Q12866); test: Mer kinase inhibitory activity assay (in vitro); type: biochemical; details: ATP 30 uM, enzyme 0.25 nM; means from three independent experiments
T2 sequence (Q12866 21-999): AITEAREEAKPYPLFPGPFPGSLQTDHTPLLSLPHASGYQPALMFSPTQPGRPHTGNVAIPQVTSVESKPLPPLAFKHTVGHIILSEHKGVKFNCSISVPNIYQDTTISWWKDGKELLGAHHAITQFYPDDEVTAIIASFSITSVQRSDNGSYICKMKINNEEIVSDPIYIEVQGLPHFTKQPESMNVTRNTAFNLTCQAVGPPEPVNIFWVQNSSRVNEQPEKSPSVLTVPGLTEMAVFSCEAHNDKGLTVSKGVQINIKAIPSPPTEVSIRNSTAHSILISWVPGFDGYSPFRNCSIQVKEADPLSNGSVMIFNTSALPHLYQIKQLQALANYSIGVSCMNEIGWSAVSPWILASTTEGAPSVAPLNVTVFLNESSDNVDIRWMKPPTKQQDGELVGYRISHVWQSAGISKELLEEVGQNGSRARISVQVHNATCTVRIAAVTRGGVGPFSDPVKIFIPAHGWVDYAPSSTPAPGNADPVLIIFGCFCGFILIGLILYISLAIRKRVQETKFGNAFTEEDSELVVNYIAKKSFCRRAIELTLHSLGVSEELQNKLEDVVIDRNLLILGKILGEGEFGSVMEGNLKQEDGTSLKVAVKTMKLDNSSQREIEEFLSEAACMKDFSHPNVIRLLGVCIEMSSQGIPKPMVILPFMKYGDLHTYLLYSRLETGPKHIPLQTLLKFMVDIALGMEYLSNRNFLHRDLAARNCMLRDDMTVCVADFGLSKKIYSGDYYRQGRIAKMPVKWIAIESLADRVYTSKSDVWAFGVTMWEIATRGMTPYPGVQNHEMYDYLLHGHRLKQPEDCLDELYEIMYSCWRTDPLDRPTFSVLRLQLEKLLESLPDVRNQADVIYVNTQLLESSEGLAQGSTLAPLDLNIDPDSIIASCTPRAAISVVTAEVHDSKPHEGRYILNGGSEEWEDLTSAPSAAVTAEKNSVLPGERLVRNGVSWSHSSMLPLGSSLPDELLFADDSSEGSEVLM
Procedure: The in vitro inhibition assays of all final compounds against Mer and c-Met kinase were performed by Shanghai Bioduro Biological Technology Co., Ltd. (Shanghai, China). We prepared 1× buffer: HEPES 50 mM, MgCl2 10 mM, EGTA 1 mM, NP-40 0.0001%, DTT 2 mM; compound dilution with DMSO. For test compounds, a 100 × final concentration solution was prepared. About 100 nL compounds were transferred to a 384-well plate by using the automated liquid handler. The final DMSO% in the assay is 1%. Enzyme stock solutions were diluted with 1× assay buffer to a concentration of 0.5 nM to make a 2× working solution. […] Substrate solutions were diluted with 1× assay buffer. About 5 μL mix or buffer was added manually to the assay plate (ATP final 30 uM and TK-Sub-Biotin final 2 uM) using a multichannel pipette, spun down at 1000 rpm, and centrifuged for 30 s. After incubating at 30 °C for 60 min, 10 μL of detection solution was added to each well of the assay, mixed briefly with a centrifuge, and equilibrated for another 60 min. The luminescence was recorded using Envision.

[9] = ratio of IC50 values to cabozantinib

T1 sequence (Q12809 whole entry): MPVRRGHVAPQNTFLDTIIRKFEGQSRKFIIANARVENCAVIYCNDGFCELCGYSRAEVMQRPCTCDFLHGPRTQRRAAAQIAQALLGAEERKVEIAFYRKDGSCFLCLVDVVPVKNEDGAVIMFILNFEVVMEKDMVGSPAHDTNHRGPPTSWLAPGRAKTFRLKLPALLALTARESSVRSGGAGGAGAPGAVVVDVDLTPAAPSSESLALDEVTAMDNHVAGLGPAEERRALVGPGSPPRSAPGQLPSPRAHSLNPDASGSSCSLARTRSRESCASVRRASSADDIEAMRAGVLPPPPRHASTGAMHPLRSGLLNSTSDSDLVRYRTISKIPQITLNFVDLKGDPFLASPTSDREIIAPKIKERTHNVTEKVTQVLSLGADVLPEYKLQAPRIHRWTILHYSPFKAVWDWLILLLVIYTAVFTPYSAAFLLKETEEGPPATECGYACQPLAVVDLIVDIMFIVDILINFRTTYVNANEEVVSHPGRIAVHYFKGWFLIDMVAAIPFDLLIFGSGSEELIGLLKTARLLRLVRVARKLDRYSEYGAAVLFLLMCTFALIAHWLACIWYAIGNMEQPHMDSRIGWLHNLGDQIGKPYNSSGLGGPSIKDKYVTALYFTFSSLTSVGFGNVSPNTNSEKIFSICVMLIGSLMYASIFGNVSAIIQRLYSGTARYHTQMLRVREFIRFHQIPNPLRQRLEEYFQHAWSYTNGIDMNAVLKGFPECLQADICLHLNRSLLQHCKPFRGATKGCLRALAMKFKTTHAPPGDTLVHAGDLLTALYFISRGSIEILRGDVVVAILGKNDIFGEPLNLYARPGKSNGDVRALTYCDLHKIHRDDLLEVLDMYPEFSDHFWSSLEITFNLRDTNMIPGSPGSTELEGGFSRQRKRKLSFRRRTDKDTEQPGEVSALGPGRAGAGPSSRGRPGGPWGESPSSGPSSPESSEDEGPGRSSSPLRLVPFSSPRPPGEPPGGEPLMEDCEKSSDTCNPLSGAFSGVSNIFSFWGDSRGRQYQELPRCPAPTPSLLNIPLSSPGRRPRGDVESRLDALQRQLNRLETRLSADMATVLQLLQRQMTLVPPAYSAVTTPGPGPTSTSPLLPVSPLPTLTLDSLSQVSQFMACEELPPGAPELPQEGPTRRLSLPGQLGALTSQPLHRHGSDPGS

CN1CCN(CC(=O)Nc2ccc(Nc3nccc(Oc4ccc(NC(=O)C5(C(=O)Nc6ccc(F)cc6)CC5)cc4)n3)cc2)CC1 [Compound 18c]
Inhibition of HCT116 cell migration vs control [1]: inhibited cell migration; also recorded: significantly inhibited
microsomal CLint at 1 μM ([2]; read-out: CL Human): 60 µL/min/mg
half-life at 1 μM ([2]; read-out: T1/2 Human): 53.1 min
IC50 ([3]; Homo sapiens, HCT-116, 72 h, read-out: IC50 antiproliferative HCT116): 4.95 µM
Antiproliferative activity against HCT116, times higher than cabozantinib [3, 9]: 1.6 times
IC50 [4]: > 40 µM
IC50 ([5]; Homo sapiens, HepG2, 72 h, read-out: IC50 antiproliferative HepG2): 6.63 µM
Antiproliferative activity against HepG2, times lesser than cabozantinib [5, 9]: 3.8 times
ED50 apoptosis (TUNEL-positive cells) [6]: 10.07 µM
IC50 ([7]; Homo sapiens, MDA-MB-231, 72 h, read-out: IC50 antiproliferative MDA-MB0231): 8.9 µM
Antiproliferative activity against MDA-MB-231, times higher than cabozantinib [7, 9]: 3.3 times
IC50 [8]: 0.0185 ± 0.0023 µM
